Values quoted from earlier work as cited in US11206824B2, “Gas delivery device comprising a gas releasing molecule and a gas permeable membrane” (Julius-Maximilians-Universitaet Wuerzburg, priority 2015, dated 2021).

Key:
[1] = test system: liver transplantation associated I/R injury; details: pre-treatment of donors, inhaled
[2] = test system: renal warm ischemia reperfusion injury; details: i.v. 20 mg/kgBW, mice
rodent kidney grafts = details: 1 ml, 100 μmol/L in UW solution, 26 h cold preservation
rodent liver = details: 50 μM in modified UW solution, 48 h cold ischemia

[C-]#[O+] [CO, carbon monoxide]
liver transplantation associated I/R injury [1]: ameliorates

[C-]#[O+].[C-]#[O+].[C-]#[O+].[C-]#[O+].[C-]#[O+].[C-]#[O+].[Cl][Ru][Cl].[Cl][Ru][Cl] [CORM-2, tricarbonyldichlororuthenium(II) dimer]
protection against lethal renal warm ischemia reperfusion injury [2]: almost completely protects

NCC(=O)O.[C-]#[O+].[C-]#[O+].[C-]#[O+].[Cl][Ru] [CORM-3, tricarbonylchloro ruthenium-glycinato]
cellular and graft injury and survival (rodent kidney grafts): significant impact on decreasing cellular and graft injury, and improving survival
perfusion flow, intrahepatic resistance and metabolic capacity (rodent liver): improved
